Assay results: patent US7683057B2, “Kinase inhibitor compounds” (Tyrogenex, Inc., priority 2007, dated 2010)

Experiments:
AMPK (r) = assay: AMPK Biochemical Assay; parameters: species or system rat; conditions: compared with sunitinib
Procedure: The compounds are assayed for biochemical activity essentially according to the following procedure. In a final reaction volume of 25 μl, AMPK (r) (5-10 mU) is incubated with 32 mM HEPES pH7.4, 0.65 mM DTT, 0.012% Brij-35, 200 μM AMP, 200 μM AMARAASAAALARRR, 10 mM MgAcetate and [(γ-33P-ATP] (specific activity approx. 500 cpm/pmol, concentration as required). The reaction is initiated by the addition of the MgATP mix. After incubation for 40 minutes at room temperature, the reaction is stopped by the addition of 5 μl of a 3% phosphoric acid solution. 10 μl of the reaction is then spotted onto a P30 filtermat and washed three times for 5 minutes in 75 mM phosphoric acid and once in methanol prior to drying and scintillation counting.

AMPK = conditions: proteomic study, literature; cited from earlier work

Compound	AMPK inhibitory activities (AMPK (r))	inhibition of AMPK (AMPK)
Cc1[nH]c(/C=C2\C(=O)Nc3ccc(F)cc32)c(C)c1C(=O)N[C@H]1CC[C@@H](C(=O)N2CCOCC2)CC1 [Example 30, 5-[5-Fluoro-2-oxo-1,2-dihydro-indol-(3Z)-ylidenemethyl]-2,4-dimethyl-1H-pyrrole-3-carboxylic acid [4-(morpholine-4-carbonyl)-cyclohexyl]-amide]	significantly less AMPK inhibitory activities than sunitinib	–
Cc1[nH]c(/C=C2\C(=O)Nc3ccc(F)cc32)c(C)c1C(=O)N[C@@H]1CON(C2CCOCC2)C1=O [Example 48, 5-[5-Fluoro-2-oxo-1,2-dihydro-indol-(3Z)-ylidenemethyl]-2,4-dimethyl-1H-pyrrole-3-carboxylic acid [(R)-3-oxo-2-(tetrahydro-pyran-4-yl)-isoxazolidin-4-yl]-amide]	significantly less AMPK inhibitory activities than sunitinib	–
Cc1[nH]c(/C=C2\C(=O)Nc3ccc(F)cc32)c(C)c1C(=O)NC1CS(=O)(=O)CC1O (stereo not drawn) [Example 17, 5-[5-Fluoro-2-oxo-1,2-dihydro-indol-(3Z)-ylidenemethyl]-2,4-dimethyl-1H-pyrrole-3-carboxylic acid (4-hydroxy-1,1-dioxo-tetrahydro-thiophen-3-yl)-amide]	significantly less AMPK inhibitory activities than sunitinib	–
Cc1[nH]c(/C=C2\C(=O)Nc3ccc(F)cc32)c(C)c1C(=O)N[C@H]1CCN(C(=O)C(=O)N(C)C)C1 [Example 29, 5-[5-Fluoro-2-oxo-1,2-dihydro-indol-(3Z)-ylidenemethyl]-2,4-dimethyl-1H-pyrrole-3-carboxylic acid ((S)-1-dimethylaminooxalyl-pyrrolidin-3-yl)-amide]	significantly less AMPK inhibitory activities than sunitinib	–
Cc1[nH]c(/C=C2\C(=O)Nc3ccc(F)cc32)c(C)c1C(=O)NC1CCN(C(=O)CO)CC1 [Example 22, 5-[5-Fluoro-2-oxo-1,2-dihydro-indol-(3Z)-ylidenemethyl]-2,4-dimethyl-1H-pyrrole-3-carboxylic acid [1-(2-hydroxy-acetyl)-piperidin-4-yl]-amide]	significantly less AMPK inhibitory activities than sunitinib	–
Cc1[nH]c(/C=C2\C(=O)Nc3ccccc32)c(C)c1CCC(=O)O [SU6668]	–	inhibits
Cc1[nH]c(/C=C2\C(=O)Nc3ccc(F)cc32)c(C)c1C(=O)N[C@H]1CCNC1=O [Example 25, 5-[5-Fluoro-2-oxo-1,2-dihydro-indol-(3Z)-ylidenemethyl]-2,4-dimethyl-1H-pyrrole-3-carboxylic acid ((S)-2-oxo-pyrrolidin-3-yl)-amide]	significantly less AMPK inhibitory activities than sunitinib	–
Cc1[nH]c(/C=C2\C(=O)Nc3ccc(F)cc32)c(C)c1C(=O)N[C@H]1CC[C@@H](C(=O)N2CCCC2)CC1 [Example 31, 5-[5-Fluoro-2-oxo-1,2-dihydro-indol-(3Z)-ylidenemethyl]-2,4-dimethyl-1H-pyrrole-3-carboxylic acid [4-(pyrrolidine-1-carbonyl)-cyclohexyl]-amide]	significantly less AMPK inhibitory activities than sunitinib	–
Cc1[nH]c(/C=C2\C(=O)Nc3ccc(F)cc32)c(C)c1C(=O)N[C@@H]1CCC[C@@H]1C(=O)N1CCCC1 [Example 36, 5-[5-Fluoro-2-oxo-1,2-dihydro-indol-(3Z)-ylidenemethyl]-2,4-dimethyl-1H-pyrrole-3-carboxylic acid [(1R,2S)-2-(pyrrolidine-1-carbonyl)-cyclopentyl]-amide]	significantly less AMPK inhibitory activities than sunitinib	–
